A value given as a limit tells only on which side of the number the result lay.

The values that follow come from patent US20190022162A1, “COMBINATION ANTICANCER ENDOWED WITH ANTITUMOR ACTIVITY, COMPRISING ALKALOIDS OF CHELIDONIUM MAJUS” (International Society for Drug Development S.R.L., priority 2015, published 2019).

Data set [1] has as its system MIA PaCa-2 pancreatic cancer cell line. Kind of data set: Cell counting (Trypan blue, Neubauer chamber), MIA PaCa-2 cells. Particulars: for percentage of viable cells relative to the control: 48 h. It is filed as cell-based. On the procedure:
The MIA PaCa-2 cells were cultivated in T25 flasks and treated with the agents after reaching a confluence of 90%. After a 48 hours treatment, the cells were detached with trypsin-EDTA and suspended in medium consisting of 50% DMEM and 50% Trypan blue. The number of viable cells after each treatment was estimated by using the Neubauer counting chamber, excluding those cells which turned out positive to Trypan blue. At least three counts were made for each treatment.
The percentage of viable cells relative to the control was determined by the ratio between the number of treated cells and the number of untreated cells.

For data set [2], the system named is MIA PaCa-2 (pancreatic carcinoma). Kind of data set: WST-1 assay (dehydrogenase activity / cell viability), MIA PaCa-2 cells. (In general: Tetrazolium assays rely on reduction of a dye to a coloured formazan, in cell work by metabolically active cells.)
The nature of data set [3]: Cell counting (Trypan blue, Neubauer chamber), HDF cells. Type of data set: cell-based, human. Particulars: human, human dermal fibroblasts (HDF). The procedure:
(§1) For sake of completeness' of information and for the purpose of evaluating the differential cytotoxicity exerted both by the individual components of the combinations and by the combinations themselves on tumour and normal cells, the same treatments tested on U343 cells were also conducted on human dermal fibroblasts (HDF), chosen as a model of cells not concerned by tumour pathologies; this allowed, in the case of treatments tested on U343 cells, evaluations of the differential effects of the tested agents against tumour cells and against a model of normal cells, in accordance with the invention.
(§2) The U343 cells and the HDF cells were cultivated in T25 flasks and treated with the agents after reaching a confluence of 90%. After 48 hours of treatment, the cells were detached with trypsin-EDTA and suspended in medium consisting of 50% DMEM and 50% Trypan blue. The number of viable cells after each treatment was estimated by using the Neubauer counting chamber, excluding cells positive to Trypan blue. At least three countings were made for each treatment.
(§3) The percentage of viable cells compared to the control was determined by the ratio between the number of treated cells and the number of untreated cells.

The test system of data set [4] is U343 (glioblastoma). Kind of data set: WST-1 assay (dehydrogenase activity / cell viability), U343 cells. Particulars: 48 h.
For data set [5], the system named is U343 (glioblastoma). Put plainly: Cell counting (Trypan blue, Neubauer chamber), U343 cells. Type of data set: cell-based. Particulars: for percentage of viable cells compared to the control: 48 h. On the procedure:
as §2, §3

For data set [6], the system named is human dermal fibroblasts (HDF). Put plainly: Cell counting (Trypan blue, Neubauer chamber), HDF cells. It is filed as cell-based. The procedure: as §1, §2, §3
In data set [7] the test system is U343 cells / HDF cells. Kind of data set: Therapeutic Favourability Index (ratio of viable U343 to viable HDF cells). It is filed as cell-based. An excerpt:
It may be useful to remind that the TFI parameter allows estimating the ratio between desired cytotoxicity (on U343 cells) and undesired cytotoxicity (on HDF cells used as a normal cell model). The lower the value of the TFI parameter, the more the assayed agent is adequate for therapeutic use, since this parameter measures the ratio between desired cytotoxicity (on tumour cells) and undesired cytotoxicity (on the cells of the non-tumour model).

Setting [8] is: 2.154 μM (combination equimolar).
Setting [9] is: 4.642 μM (combination equimolar).

On to `Nc1ccn([C@@H]2O[C@H](CO)[C@@H](O)C2(F)F)c(=O)n1` [Gemcitabine, gemcitabine, reference compound], for which, in data set [1] (Gemcitabine 20 μM), the “percentage of viable cells relative to the control” value is on record as 33%. The viability at 20 µM in data set [1] (Homo sapiens, MIA PaCa-2, 48 h, Gemcitabine 20 μM, read-out: percentage of viable cells relative to the control) is more than 30%. Further, the “effect on cell metabolic activity” value in data set [2] (agent alone, 0.1-10 μM) is reported as “essentially negligible increase”.
Take `Cn1nnc2c(C(N)=O)ncn2c1=O` [temozolomide, reference compound]: the cytotoxicity at 48 h in data set [3] (direct administration, decrease up to, read-out: reduction in the percentage of viable HDF cells) lay within 60 to 70%.
Take `CN1Cc2c(ccc3c2OCO3)[C@@H]2[C@H]1c1cc3c(cc1C[C@@H]2O)OCO3` [Chelidonine, chelidonine]: the “Δ (viability %)” value amounted to 2.4722% in data set [4] (0.1 μM (combination equimolar)); 25.9168% in data set [4] (1 μM (combination equimolar)); 40.0495% in data set [4] (setting [8]); 24.4335% in data set [4] (setting [9]); 14.3799% in data set [4] (10 μM (combination equimolar)).
Take `COc1ccc2cc3[n+](cc2c1OC)CCc1cc2c(cc1-3)OCO2` [Berberine, berberine]: the results for the “% proliferation of U343 against control” value in data set [5] (0.464 μM), in data set [5] (2.154 μM) and in data set [5] (10.0 μM) were 94.00%, 82.60% and 59.80%, respectively. In addition, the “percentage of viable cells compared to the control” value worked out at 94% in data set [5] (Ber 0.464 μM), 82.6% in data set [5] (Ber 2.154 μM) and 59.8% in data set [5] (Ber 10 μM). Moreover, in data set [3] (Ber 0.464 μM, 48 h, read-out: percentage of viable cells compared to the control), the viability at 48 h, 0.464 μM came out at 82.7%. The viability at 48 h, 2.154 μM in data set [3] (Ber 2.154 μM, 48 h, read-out: percentage of viable cells compared to the control) was found to be 70.4%. For the same molecule, the viability at 48 h, 10 μM in data set [3] (Ber 10 μM, 48 h, read-out: percentage of viable cells compared to the control) was determined as 67.3%. For the same molecule, the “% proliferation of HDF against control” value in data set [6] (0.464 μM) is on record as 82.65%; in data set [6] (2.154 μM), 71.41%; in data set [6] (10.0 μM) it was 67.35%. Further, the “percentage of viable cells relative to the control” value came out at 88% in data set [1] (Ber 0.4 μM); 51% in data set [1] (Ber 2.0 μM); 33% in data set [1] (Ber 10 μM, listed as Ber); 24% in data set [1] (Ber 50 μM). Besides, the “TFI index U343/HDF % proliferation ratio” value turned out to be 1.137 in data set [7] (0.464 μM), 1.173 in data set [7] (2.154 μM) and 0.888 in data set [7] (10.0 μM). The “Δ (viability %)” value is given as 23.2128% in data set [4] (0.1 μM (combination equimolar)); 12.3254% in data set [4] (0.215 μM (combination equimolar)); 36.3599% in data set [4] (0.464 μM (combination equimolar)); 27.3008% in data set [4] (1 μM (combination equimolar)); 15.4889% in data set [4] (setting [8]); 11.3394% in data set [4] (setting [9]). Further, the “Δ (viability %)” value in data set [4] (10 μM (combination equimolar)) is given as 10.3533%; in data set [2] (0.215 μM (combination equimolar), 48 h), 5.73%. In addition, the “decrease in the metabolic activity” value in data set [2] (starting from concentrations slightly lower than 10 μM) is reported as “approx. 50%”.
